Converted amounts (≈) assume the structure as drawn.

Holding throughout (assay): ≥ marks a high value that may be exact or a test limit, other limits are often not marked, values filed in µg/mL are converted to µM
Assay [1] relates to Micrococcus luteus BCRC 11034.
In assay [2] the test system is Vibrio harveyi BCRC 13812.
Assay [3] has as its system Streptococcus agalactiae.
The test system of assay [4] is Staphylococcus sp. BCRC 10451.
The subject of assay [5] is Streptococcus pneumoniae BCRC 10794.
Assay [6] has as its system Vibrio vulnificus 204.
The subject of assay [7] is Vibrio alginolyticus.
Assay [8] has as its system Staphylococcus aureus BCRC 10780.
Assay [9] concerns Pseudomonas aeruginosa.
The subject of assay [10] is Haemophilus influenzae ATCC 49766.
The test system of assay [11] is Enterococcus faecalis ATCC 29212.
Assay [12] deals with Klebsiella pneumoniae ATCC 13883.
Assay [13] relates to Staphylococcus aureus ATCC 25923.
Assay [14] has as its system Candida albicans ATCC 2002.
In assay [15] the test system is Escherichia coli.
For assay [16], the system named is Klebsiella aerogenes.
Assay [17] concerns Enterobacter cloacae ATCC 13047.
The test system of assay [18] is Candida albicans.
Assay [19] concerns Staphylococcus aureus.
The subject of assay [20] is Escherichia coli ATCC 25922.
Assay [21] has as its system Enterobacter cloacae.
Assay [22] concerns Pseudomonas aeruginosa PAO1.
For assay [23], the system named is Staphylococcus aureus ATCC 43300.
The subject of assay [24] is Escherichia coli ML-35p.
Assay [25] deals with Haemophilus influenzae ATCC 49247.
Assay [26] relates to Klebsiella pneumoniae ATCC 700603.
Assay [27] has as its system Pseudomonas aeruginosa ATCC 27853.
Assay [28] deals with Staphylococcus aureus ATCC 25325.
Assay [29] relates to Escherichia coli ATCC 35218.
The test system of assay [30] is Listeria monocytogenes ATCC 35152.
The test system of assay [31] is Vibrio cholerae non-O1.
For assay [32], the system named is Staphylococcus epidermidis ATCC 12228.
Assay [33] has as its system Salmonella enterica subsp. enterica serovar Typhi DMST 22842.
Assay [34] relates to Vibrio cholerae non-O139.
The test system of assay [35] is Staphylococcus aureus SA113.
In assay [36] the test system is Escherichia coli NCIMB 11843.
Assay [37] relates to Klebsiella pneumoniae NCIMB 13218.
Assay [38] relates to Staphylococcus aureus RN4220.
Assay [39] has as its system Cronobacter sakazakii DPC 6440.
Assay [40] concerns Cronobacter muytjensii ATCC 51329.
Assay [41] deals with Cronobacter sakazakii ATCC BAA-894.
The subject of assay [42] is Salmonella enterica subsp. enterica serovar Typhimurium LT2.
In assay [43] the test system is Pseudomonas fluorescens NCIMB 9046.
Assay [44] concerns Staphylococcus aureus Newman.
For assay [45], the system named is Staphylococcus aureus NCTC 8325-4.
Assay [46] relates to Cronobacter sakazakii DSM 4485.
The test system of assay [47] is Staphylococcus aureus RF122.

For `CC[C@H](C)[C@H](NC(=O)[C@H](Cc1ccccc1)NC(=O)CNC(C)=O)C(=O)N[C@@H](Cc1ccccc1)C(=O)N[C@@H](Cc1cnc[nH]1)C(=O)N[C@H](C(=O)N[C@H](C(=O)N[C@@H](CCCCN)C(=O)NCC(=O)N[C@@H](CC(C)C)C(=O)N[C@@H](Cc1ccccc1)C(=O)N[C@@H](Cc1cnc[nH]1)C(=O)N[C@@H](C)C(=O)NCC(=O)N[C@@H](CCCCN)C(N)=O)[C@@H](C)CC)[C@@H](C)CC` [GFIFHIIKGLFHAGK], the MIC in [1] is 14.8 µM (≈ 25.6 µg/mL); in [2], 7.42 µM (≈ 12.8 µg/mL); in assay [3], 29.7 µM (≈ 51.2 µg/mL); in assay [4] it was 3.71 µM (≈ 6.4 µg/mL); in assay [5], 29.7 µM (≈ 51.2 µg/mL); in assay [6] it was not below 59.3 µM. Moreover, the MIC in assay [7] and in assay [8] was 14.8 µM (≈ 25.6 µg/mL) in each case.
As to `CC(C)C[C@H](NC(=O)[C@H](CCCCN)NC(=O)[C@H](CCCCN)NC(=O)[C@H](Cc1ccccc1)NC(=O)[C@H](Cc1ccccc1)NC(=O)[C@@H](N)CCCCN)C(=O)N[C@@H](CCCCN)C(=O)N[C@@H](CCCCN)C(=O)N[C@@H](C)C(=O)N[C@H](C(=O)N[C@@H](CCCCN)C(=O)N[C@@H](CCCCN)C(=O)NCC(=O)N[C@@H](Cc1ccccc1)C(=O)N[C@@H](CCCCN)C(=O)N[C@@H](CCCCN)C(=O)N[C@@H](Cc1ccccc1)C(=O)N[C@@H](C)C(=O)N[C@@H](CCCCN)C(=O)N[C@H](C(=O)O)C(C)C)C(C)C` [KFFKKLKKAVKKGFKKFAKV], the MIC in assay [9] was 5.21 µM (≈ 12.5 µg/mL); in assay [10], 2.61 µM (≈ 6.25 µg/mL); in [11] it was 10.4 µM (≈ 25 µg/mL); in [12] it was 2.61 µM (≈ 6.25 µg/mL); in assay [13], 5.21 µM (≈ 12.5 µg/mL); in assay [14] it was not below 83.4 µM. The MIC in assay [15] was 5.21 µM (≈ 12.5 µg/mL); in assay [16] it was not below 41.7 µM; in assay [17], not below 41.7 µM; in assay [18] it was more than 83.4 µM; in assay [19] it was 5.21 µM (≈ 12.5 µg/mL); in assay [20], 5.21 µM (≈ 12.5 µg/mL). The MIC was not below 41.7 µM in assay [21]; 5.21 µM (≈ 12.5 µg/mL) in assay [22]; 1.3 µM (≈ 3.13 µg/mL) in [23]; 2.61 µM (≈ 6.25 µg/mL) in assay [24]; 1.3 µM (≈ 3.13 µg/mL) in [25]; 1.3 µM (≈ 3.13 µg/mL) in [26].
With `CC(C)[C@H](NC(=O)[C@H](Cc1cnc[nH]1)NC(=O)[C@H](C)NC(=O)[C@H](C)NC(=O)[C@H](CCCCN)NC(=O)[C@@H](N)CCCCN)C(=O)NCC(=O)N[C@@H](CCCCN)C(=O)N[C@@H](Cc1cnc[nH]1)C(=O)N[C@H](C(=O)NCC(=O)N[C@@H](CCCCN)C(=O)N[C@@H](C)C(=O)N[C@@H](C)C(=O)N[C@@H](CCCCN)C(=O)N[C@@H](CCCCN)C(=O)O)C(C)C` [KKAAHVGKHVGKAAKK], the MIC in assay [11] is 47.2 µM (≈ 78.3 µg/mL); in [27], 52 µM (≈ 86.2 µg/mL); in [28], not below 56.3 µM; in assay [29], not below 56.1 µM.
In the case of `CC(C)C[C@H](NC(=O)[C@H](CCCCN)NC(=O)[C@@H](N)CCCCN)C(=O)NCC(=O)N[C@@H](CCC(=O)O)C(=O)N1CCC[C@H]1C(=O)N[C@@H](CO)C(=O)N[C@@H](CS)C(=O)N[C@@H](CC(N)=O)C(=O)N[C@@H](CCCCN)C(=O)N[C@@H](CC(C)C)C(=O)N[C@@H](CCCCN)C(N)=O` [KKLGEPSCNKLK], the MIC in assay [30] was 22.3 µM (≈ 30 µg/mL); in assay [12] it was 29.7 µM (≈ 40 µg/mL); in assay [13], 18.6 µM (≈ 25 µg/mL); in assay [27] it was 37.2 µM (≈ 50 µg/mL); in [20] it was 22.3 µM (≈ 30 µg/mL).
For the compound `CC(C)[C@H](NC(=O)CNC(=O)[C@@H](N)CC(N)=O)C(=O)N[C@@H](CCC(N)=O)C(=O)N1CCC[C@H]1C(=O)N[C@@H](Cc1c[nH]c2ccccc12)C(=O)N[C@@H](Cc1ccc(O)cc1)C(=O)N[C@@H](CCCCN)C(=O)N[C@@H](Cc1c[nH]c2ccccc12)C(=O)N[C@@H](Cc1c[nH]c2ccccc12)C(=O)N[C@@H](CCCCN)C(=O)N[C@@H](Cc1c[nH]c2ccccc12)C(=O)N[C@@H](Cc1c[nH]c2ccccc12)C(=O)N[C@@H](CCCCN)C(=O)N[C@@H](CCCCN)C(=O)N[C@@H](Cc1c[nH]c2ccccc12)C(=O)N[C@@H](Cc1c[nH]c2ccccc12)C(N)=O` [NGVQPWYKWWKWWKKWW], the MIC in assay [13] is more than 36.5 µM; in [31], not below 36.5 µM; in [32], 36.5 µM (≈ 91 µg/mL); in assay [33], not below 36.5 µM; in [20] it was more than 36.5 µM; in [34], not below 36.5 µM.
Regarding `CC[C@H](C)[C@H](NC(=O)[C@@H](N)C(C)C)C(=O)N[C@@H](CC(N)=O)C(=O)N[C@@H](CCC(=O)O)C(=O)N[C@@H](CC(N)=O)C(=O)N[C@@H](CC(C)C)C(=O)N[C@@H](CC(C)C)C(=O)N[C@@H](CCCN=C(N)N)C(=O)O` [VINENLLR], the MIC in assay [35] was not below 1250 µM; in assay [36], not below 2500 µM; in assay [37], not below 2500 µM; in [38], not below 1250 µM; in assay [39], not below 1250 µM; in assay [40], not below 1250 µM. In addition, the MIC in assay [41] is not below 1250 µM; in assay [42] it was not below 2500 µM; in assay [43], not below 2500 µM; in assay [44], not below 1250 µM; in assay [45], not below 625 µM; in [46], not below 1250 µM. In assay [47], this compound gave an MIC not below 1250 µM.

The values above are taken from DBAASP.
